The source of these data is patent US20250361230A1, “LATS Inhibitors and Uses Thereof” (The USA, as Represented by the Secretary, Dept. of Heath …, priority 2022, published 2025).

This experiment concerns the target T1, LATS2 (Homo sapiens, UniProt Q9NRM7).
T1 sequence (Q9NRM7 1-1088): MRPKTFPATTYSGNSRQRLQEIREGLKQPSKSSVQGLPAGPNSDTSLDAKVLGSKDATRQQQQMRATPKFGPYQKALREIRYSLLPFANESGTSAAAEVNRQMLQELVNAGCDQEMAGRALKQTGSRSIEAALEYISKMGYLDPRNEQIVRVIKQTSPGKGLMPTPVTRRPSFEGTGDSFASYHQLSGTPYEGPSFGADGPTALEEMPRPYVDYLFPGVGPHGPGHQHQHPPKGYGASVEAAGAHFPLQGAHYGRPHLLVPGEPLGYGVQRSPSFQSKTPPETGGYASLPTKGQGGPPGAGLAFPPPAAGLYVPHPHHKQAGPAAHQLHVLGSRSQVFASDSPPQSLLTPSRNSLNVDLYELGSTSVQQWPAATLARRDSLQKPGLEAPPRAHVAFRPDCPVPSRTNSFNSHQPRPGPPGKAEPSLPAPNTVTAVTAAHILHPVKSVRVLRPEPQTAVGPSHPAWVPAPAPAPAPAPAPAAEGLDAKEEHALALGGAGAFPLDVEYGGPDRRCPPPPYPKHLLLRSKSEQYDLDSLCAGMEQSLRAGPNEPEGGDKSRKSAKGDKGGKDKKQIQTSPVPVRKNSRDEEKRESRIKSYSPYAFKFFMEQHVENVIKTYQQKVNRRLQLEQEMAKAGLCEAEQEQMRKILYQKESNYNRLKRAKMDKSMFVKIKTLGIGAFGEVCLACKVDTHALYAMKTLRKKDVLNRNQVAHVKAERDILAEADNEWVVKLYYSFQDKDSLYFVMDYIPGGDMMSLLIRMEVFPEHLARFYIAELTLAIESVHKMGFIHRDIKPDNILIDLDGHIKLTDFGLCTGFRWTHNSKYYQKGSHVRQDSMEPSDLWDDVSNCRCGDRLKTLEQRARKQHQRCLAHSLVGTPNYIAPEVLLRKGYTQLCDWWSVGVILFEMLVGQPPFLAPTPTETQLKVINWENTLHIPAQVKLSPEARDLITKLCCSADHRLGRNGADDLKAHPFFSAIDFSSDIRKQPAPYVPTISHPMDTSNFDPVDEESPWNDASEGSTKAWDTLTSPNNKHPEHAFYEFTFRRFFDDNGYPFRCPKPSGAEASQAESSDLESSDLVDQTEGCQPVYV
The experiment can be described thus: RBC HotSpot kinase assay (33P-ATP, P81 filter-binding), LATS2. Format: biochemical. Conditions: Table 28, biochemical kinase assay; read-out: LATS2 IC50. The procedure, abridged:
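Compounds were run as single 10-point titrations to give IC50 values in nM. Each kinase was mixed with substrate and cofactors in 20 mM Hepes pH 7.5 reaction buffer with 1% DMSO, then exposed to compound for 20 min. 33P-ATP was added for a 2 h room-temperature reaction, with activity measured by P81 filter binding.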

In general, IC50 refers to the concentration needed to halve the response being measured. As to `C[C@@H]1CN(CC(N)=O)C[C@H](C)[C@@]1(O)c1c(F)cc(-c2ccnc3[nH]cc(F)c23)cc1F` [Compound 88, 2-((3R,4s,5S)-4-(2,6-difluoro-4-(3-fluoro-1H-pyrrolo[2,3-b]pyridin-4-yl)phenyl)-4-hydroxy-3,5-dimethylpiperidin-1-yl)acetamide], the IC50 is 2.9 nM. To `C[C@@H]1CN(C2CCNCC2)C[C@H](C)[C@@]1(O)c1c(F)cc(-c2ccnc3[nH]cc(F)c23)cc1F` [Compound 90, (3R,4s,5S)-4-(2,6-difluoro-4-(3-fluoro-1H-pyrrolo[2,3-b]pyridin-4-yl)phenyl)-3,5-dimethyl-[1,4′-bipiperidin]-4-ol] belongs 4.6 nM. To `OC1(c2ccc(-c3ccnc4[nH]cc(F)c34)cc2)CCNCC1` [Compound 110, 4-(4-(3-fluoro-1H-pyrrolo[2,3-b]pyridin-4-yl)phenyl)piperidin-4-ol] belongs 2.9 nM; to `OC1(c2ccc(-c3ccnc4[nH]ccc34)cc2)CCNCC1` [Compound 111, 4-(4-(1H-pyrrolo[2,3-b]pyridin-4-yl)phenyl)piperidin-4-ol], 22 nM; to `Cc1cc(-c2ccnc3[nH]cc(F)c23)cc(F)c1C1(O)CC2(CN(C3COC3)C2)C1` [Compound 139, 6-(2-fluoro-4-(3-fluoro-1H-pyrrolo[2,3-b]pyridin-4-yl)-6-methylphenyl)-2-(oxetan-3-yl)-2-azaspiro[3.3]heptan-6-ol], 9 nM.

For the molecule `O=C([C@H]1CCCN1)N1CCC(O)(c2ccc(-c3ccnc4[nH]cc(F)c34)cc2)CC1` [Compound 142], the IC50 worked out at 4.4 nM.

`Fc1c[nH]c2nccc(-c3ccc(C4CCNCC4)cc3)c12` [Compound 169, 3-fluoro-4-(4-(piperidin-4-yl)phenyl)-1H-pyrrolo[2,3-b]pyridine]: the concentration for half-maximal inhibition (IC50) is 14 nM. To `Fc1c[nH]c2nccc(-c3ccc(C4CCNCC4)c(Cl)c3)c12` [Compound 172, 4-(3-chloro-4-(piperidin-4-yl)phenyl)-3-fluoro-1H-pyrrolo[2,3-b]pyridine] belongs 19 nM. To `Clc1c[nH]c2nccc(-c3ccc(C4CCNCC4)cc3)c12` [Compound 173, 3-chloro-4-(4-(piperidin-4-yl)phenyl)-1H-pyrrolo[2,3-b]pyridine] belongs 8 nM; to `Cc1cc(-c2ccnc3[nH]ccc23)ccc1C1CCNCC1` [Compound 177, 4-(3-methyl-4-(piperidin-4-yl)phenyl)-1H-pyrrolo[2,3-b]pyridine], 14 nM; to `c1cc(-c2ccc(C3CC4CCC(C3)N4)cc2)c2cc[nH]c2n1` (stereo not drawn) [Compound 184, 4-(4-(8-azabicyclo[3.2.1]octan-3-yl)phenyl)-1H-pyrrolo[2,3-b]pyridine], 50 nM.

With `CC1CC(c2ccc(-c3ccnc4[nH]ccc34)cc2)CC(C)N1` (stereo not drawn) [Compound 187, 4-(4-(2,6-dimethylpiperidin-4-yl)phenyl)-1H-pyrrolo[2,3-b]pyridine], the IC50 was 62.6 nM. To `CC1(c2ccc(-c3ccnc4[nH]ccc34)cc2)CCNCC1` [Compound 201, 4-(4-(4-methylpiperidin-4-yl)phenyl)-1H-pyrrolo[2,3-b]pyridine] belongs 43 nM. To `Cc1cc(-c2ccnc3[nH]cc(F)c23)ccc1CN` [Compound 211, (4-(3-fluoro-1H-pyrrolo[2,3-b]pyridin-4-yl)-2-methylphenyl) methanamine] belongs 5.5 nM. To `NCc1ccc(-c2ccnc3[nH]cc(-c4ccccc4)c23)cc1-c1ccccc1` [Compound 219, (5-(3-phenyl-1H-pyrrolo[2,3-b]pyridin-4-yl)-[1,1′-biphenyl]-2-yl)methanamine] belongs 128 nM. `COC(=O)c1c[nH]c2nccc(-c3ccc(CN)cc3)c12` [Compound 223, methyl 4-(4-(aminomethyl)phenyl)-1H-pyrrolo[2,3-b]pyridine-3-carboxylate]: the IC50 was found to be 1420 nM.

For `Cc1cccc(-c2c[nH]c3nccc(-c4ccc(CN)cc4)c23)c1` [Compound 230, (4-(3-(m-tolyl)-1H-pyrrolo[2,3-b]pyridin-4-yl)phenyl) methanamine], the IC50 came to 16 nM. To `CC(C)(N)c1ccc(-c2ccnc3[nH]cc(F)c23)cc1` [Compound 238, 2-(4-(3-fluoro-1H-pyrrolo[2,3-b]pyridin-4-yl)phenyl)propan-2-amine] belongs 1.2 nM. To `NCc1ccc(-c2ccnc3[nH]cc(-c4cccnc4)c23)cc1` [Compound 245, (4-(3-(pyridin-3-yl)-1H-pyrrolo[2,3-b]pyridin-4-yl)phenyl) methanamine] belongs 24 nM; to `NCc1ccc(-c2ccnc3[nH]cc(-c4ccccc4)c23)cc1` [Compound 253, (4-(3-phenyl-1H-pyrrolo[2,3-b]pyridin-4-yl)phenyl) methanamine], 5 nM; to `Cc1cc(-c2ccnc3[nH]cc(Cl)c23)ccc1CN` [Compound 254, (4-(3-chloro-1H-pyrrolo[2,3-b]pyridin-4-yl)-2-methylphenyl) methanamine], 5.2 nM. With `Cc1cc(-c2ccnc3[nH]ccc23)ccc1CN` [Compound 266, (2-methyl-4-(1H-pyrrolo[2,3-b]pyridin-4-yl)phenyl) methanamine], the IC50 is 5 nM.

Turning to `c1cc(-c2ccc3c(c2)CCNC3)c2cc[nH]c2n1` [Compound 267, 6-(1H-pyrrolo[2,3-b]pyridin-4-yl)-1,2,3,4-tetrahydroiso-quinoline], the half-inhibitory concentration (IC50) was determined as 10 nM. To `c1cc(-c2ccc(C3CCCCN3)cc2)c2cc[nH]c2n1` (stereo not drawn) [Compound 271, 4-(4-(piperidin-2-yl)phenyl)-1H-pyrrolo[2,3-b]pyridine] belongs 25 nM; to `NCc1ccc(-c2ccnc3[nH]cc(F)c23)cc1` [Compound 275, (4-(3-fluoro-1H-pyrrolo[2,3-b]pyridin-4-yl)phenyl) methanamine], 8.4 nM; to `NCc1ccc(-c2ccnc3[nH]cc(Cl)c23)cc1` [Compound 276, (4-(3-chloro-1H-pyrrolo[2,3-b]pyridin-4-yl)phenyl) methanamine], 5.8 nM. To `NCc1ccc(-c2ccnc3[nH]ccc23)cc1C(F)(F)F` [Compound 284, (4-(1H-pyrrolo[2,3-b]pyridin-4-yl)-2-(trifluoromethyl)phenyl) methanamine] belongs 45 nM; to `NCc1ccc(-c2ccnc3[nH]ccc23)cc1` [Compound 287, (4-(1H-pyrrolo[2,3-b]pyridin-4-yl)phenyl) methanamine], 34 nM. To `Cc1cc(-c2ccnc3[nH]cc(F)c23)cc(F)c1[C@@]1(O)[C@H](C)CN(C)C[C@@H]1C` [Compound 304, (3S,4s,5R)-4-(2-fluoro-4-(3-fluoro-1H-pyrrolo[2,3-b]pyridin-4-yl)-6-methylphenyl)-1,3,5-trimethylpiperidin-4-ol] belongs 4 nM; to `Cc1cc(-c2ccnc3[nH]cc(F)c23)cc(F)c1[C@@]1(O)[C@H](C)CN(C(C)C)C[C@@H]1C` [Compound 305, (3S,4s,5R)-4-(2-fluoro-4-(3-fluoro-1H-pyrrolo[2,3-b]pyridin-4-yl)-6-methylphenyl)-1-isopropyl-3,5-dimethylpiperidin-4-ol], 3.7 nM. For the molecule `COC(=O)c1c[nH]c2nccc(-c3cc(C)c([C@@]4(O)[C@H](C)CN(C5CCS(=O)(=O)CC5)C[C@@H]4C)c(F)c3)c12` [Compound 309, methyl 4-(4-((3S,4s,5R)-1-(1,1-dioxidotetrahydro-2H-thiopyran-4-yl)-4-hydroxy-3,5-dimethylpiperidin-4-yl)-3-fluoro-5-methylphenyl)-1H-pyrrolo[2,3-b]pyridine-3-carboxylate], the IC50 came to 3 nM. To `COC(=O)c1c[nH]c2nccc(-c3cc(C)c([C@@]4(O)[C@H](C)CN(C(=O)CN)C[C@@H]4C)c(F)c3)c12` [Compound 310, methyl 4-(3-fluoro-4-((3S,4s,5R)-1-glycyl-4-hydroxy-3,5-dimethylpiperidin-4-yl)-5-methylphenyl)-1H-pyrrolo[2,3-b]pyridine-3-carboxylate] belongs 2.3 nM; to `Cc1cc(-c2ccnc3[nH]cc(F)c23)cc(F)c1[C@@]1(O)[C@H](C)CN(C(=O)[C@H](N)CO)C[C@@H]1C` [Compound 312, (R)-2-amino-1-((3S,4R,5R)-4-(2-fluoro-4-(3-fluoro-1H-pyrrolo[2,3-b]pyridin-4-yl)-6-methylphenyl)-4-hydroxy-3,5-dimethylpiperidin-1-yl)-3-hydroxypropan-1-one], 3.5 nM.
